Tests used:
Format in all cases: cell-based
[1] = tested on: Ba/F3 cells expressing EGFR-wt; assay: Growth inhibition (GI50) of Ba/F3 cells expressing EGFR-wt, Celltiter glo; conditions: Mus musculus, BaF3, 72 h
Summary of the method: (§1)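 Viable-cell luminescence (CellTiter-Glo) after 72 h compound exposure at 37 °C, 5% CO2 gave GI50 (μM, 50% growth inhibition). Compounds were 4-fold serial dilutions, 10 points, from a 2 mM stock, 0.5% DMSO, added 4 h after plating EGFR-variant Ba/F3 cells at 100,000 cells/ml.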

[2] = tested on: Ba/F3 cells expressing L858R/T790M (EGFR-LT); assay: Growth inhibition (GI50) of Ba/F3 cells expressing L858R/T790M (EGFR-LT), Celltiter glo; conditions: Mus musculus, BaF3, 72 h
Summary of the method: as §1

[3] = tested on: parental Ba/F3 cell line; assay: Growth inhibition (GI50) of the parental Ba/F3 cell line (not introduced with EGFR variants), Celltiter glo; conditions: Mus musculus, BaF3, 72 h, parental Ba/F3 cells
Summary of the method: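 Parental Ba/F3 cells (100,000 cells/ml) were treated with 10-point, 4-fold compound dilutions (0.5% DMSO; top stock 2 mM) for 72 h at 37 °C, 5% CO2. Viability was read by CellTiter-Glo; GI50 is the concentration (μM) giving 50% growth inhibition.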

[4] = tested on: Ba/F3 cells expressing del19/T790M (EGFR-DT); assay: Growth inhibition (GI50) of Ba/F3 cells expressing del19/T790M (EGFR-DT), Celltiter glo; conditions: Mus musculus, BaF3, 72 h
Summary of the method: as §1

[5] = tested on: Ba/F3 cells expressing del19/T790M/C797S (EGFR-DTC); assay: Growth inhibition (GI50) of Ba/F3 cells expressing del19/T790M/C797S (EGFR-DTC), Celltiter glo; conditions: Mus musculus, BaF3, 72 h
Summary of the method: as §1

[6] = tested on: Ba/F3 cells expressing L858R/T790M/C797S (EGFR-LTC); assay: Growth inhibition (GI50) of Ba/F3 cells expressing L858R/T790M/C797S (EGFR-LTC), Celltiter glo; conditions: Mus musculus, BaF3, 72 h
Summary of the method: as §1

SMILES | GI50 [1] | GI50 [2] | GI50 [3] | GI50 [4] | GI50 [5] | GI50 [6]
CN1CCN(C2CCN(c3cc(F)c(Nc4ncc(Cl)c(Nc5cc6c(cc5NS(C)(=O)=O)CCO6)n4)cc3F)CC2)CC1 [Example 268, N-(6-((5-chloro-2-((2,5-difluoro-4-(4-(4-methylpiperazin-1-yl)piperidin-1-yl)phenyl)amino)pyrimidin-4-yl)amino)-2,3-dihydrobenzofuran-5-yl)methanesulfonamide] | 500 to 2000 nM | 25 to 100 nM | 2000 to 10000 nM | 25 to 100 nM | 100 to 500 nM | 100 to 500 nM
COc1cc(N2CCC(N3CCN(C)CC3)CC2)c(Br)cc1Nc1ncc(Cl)c(Nc2cc3c(cc2NS(C)(=O)=O)CCO3)n1 [Example 270, N-(6-((2-((5-Bromo-2-methoxy-4-(4-(4-methylpiperazin-1-yl)piperidin-1-yl)phenyl)amino)-5-chloropyrimidin-4-yl)amino)-2,3-dihydrobenzofuran-5-yl)methanesulfonamide] | 500 to 2000 nM | 1 to 25 nM | 500 to 2000 nM | 1 to 25 nM | 1 to 25 nM | 1 to 25 nM
COc1cc(N2CCC(N3CCN(C)CC3)CC2)c(Br)cc1Nc1ncc(Br)c(Nc2cc3c(cc2NS(C)(=O)=O)CCO3)n1 [Example 271, N-(6-((2-((5-bromo-2-methoxy-4-(4-(4-methylpiperazin-1-yl)piperidin-1-yl)phenyl)amino)-5-bromopyrimidin-4-yl)amino)-2,3-dihydrobenzofuran-5-yl)methanesulfonamide] | 2000 to 10000 nM | 1 to 25 nM | 2000 to 10000 nM | 1 to 25 nM | 1 to 25 nM | 1 to 25 nM
COc1cc(N2CCC(N3CCN(C)CC3)CC2)c(C)cc1Nc1ncc(Cl)c(Nc2ccc3c(c2)N(C)CC3)n1 [Example 272] | 2000 to 10000 nM | 500 to 2000 nM | 2000 to 10000 nM | 500 to 2000 nM | 500 to 2000 nM | 500 to 2000 nM
COc1cc(N2CCC(N3CCN(C)CC3)CC2)c(Cl)cc1Nc1ncc(Cl)c(Nc2ccc3c(c2)N(C)CC3)n1 [Example 273] | 25 to 100 nM | 100 to 500 nM | 500 to 2000 nM | 500 to 2000 nM | 500 to 2000 nM | 100 to 500 nM
Cc1cc(Nc2ncc(Cl)c(Nc3ccc4c(c3)N(C)CC4)n2)c(Cl)cc1N1CCC(N2CCN(C)CC2)CC1 [Example 274] | 25 to 100 nM | 500 to 2000 nM | 500 to 2000 nM | 500 to 2000 nM | 2000 to 10000 nM | 500 to 2000 nM
COc1cc(N2CCC(N3CCCN(C)CC3)CC2)c(C)cc1Nc1ncc(Cl)c(Nc2ccc3c(c2)N(C)CC3)n1 [Example 275] | 100 to 500 nM | 500 to 2000 nM | 500 to 2000 nM | 100 to 500 nM | 500 to 2000 nM | 500 to 2000 nM
COc1cc(N2CCC(N3CCN(C)CC3)CC2)c(C)cc1Nc1ncc(Cl)c(Nc2cc3c(cc2NS(C)(=O)=O)CCN3C)n1 [Example 276, N-(6-((5-chloro-2-((2-methoxy-5-methyl-4-(4-(4-methylpiperazin-1-yl)piperidin-1-yl)phenyl)amino)pyrimidin-4-yl)amino)-1-methylindolin-5-yl)methanesulfonamide] | 500 to 2000 nM | 100 to 500 nM | 2000 to 10000 nM | 25 to 100 nM | 100 to 500 nM | 100 to 500 nM
Cc1cc(Nc2ncc(Cl)c(Nc3ccc4c(c3)NCC4)n2)c(Cl)cc1N1CCC(N2CCN(C)CC2)CC1 [Example 277] | > 10000 nM | 2000 to 10000 nM | 2000 to 10000 nM | 2000 to 10000 nM | > 10000 nM | > 10000 nM
COc1cc(N2CCC(N3CCN(C)CC3)CC2)c(Cl)cc1Nc1ncc(Cl)c(Nc2ccc3c(c2)NCC3)n1 [Example 278] | > 10000 nM | 2000 to 10000 nM | 2000 to 10000 nM | > 10000 nM | 2000 to 10000 nM | > 10000 nM

— US20240228458A1, “PYRIMIDINE DERIVATIVE HAVING PROTEIN KINASE INHIBITORY ACTIVITY, AND THERAPEUTIC PHARMACEUTICAL COMPOSITION COMPRISING SAME” (THERAPEX CO., LTD., priority 2021, published 2024)
